According to patent EP0831877B1, “METABOLIC EFFECTS OF CERTAIN GLUTATHIONE ANALOGS” (TELIK, INC., priority 1995, dated 1996):
Several values for one entry are separate records, joined by “and”; a condition that tells them apart may be missing. Equal entries are not always repeated. Marks after values point to notes of the source that are not given here. *1 amine or outer side, *2 acyl side, *3 side chain or, on linkers, in order; H or OH if unused. Where a SMILES comes first, the peptide text is derived from it. [ ]: non-standard residue; d: D form. The star is where a group is joined. γGlu = O=C(O)[C@H](CCC(=O)[*:2])N[*:1]; dPhg = N[C@@H](C(=O)O)c1ccccc1; Bn = c1ccc(C*)cc1

How the values were obtained:
[1] = target: Human GST P1-1 (Homo sapiens, UniProt P09211); assay: inhibition of GST isoenzyme P1-1 (Ki); assay type: biochemical; details: determined on unesterified form
[2] = target: T1, GST M2-2 (Homo sapiens, UniProt P28161); assay: inhibition of GST isoenzyme M2-2 (Ki); assay type: biochemical; details: determined on unesterified form
T1 sequence (P28161 1-218): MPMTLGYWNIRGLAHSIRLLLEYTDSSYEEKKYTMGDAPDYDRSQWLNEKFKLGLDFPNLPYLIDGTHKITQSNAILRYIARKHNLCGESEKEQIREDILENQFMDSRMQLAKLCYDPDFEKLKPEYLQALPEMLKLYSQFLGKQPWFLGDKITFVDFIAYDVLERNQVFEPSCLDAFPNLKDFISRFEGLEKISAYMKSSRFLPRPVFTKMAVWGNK

[3] = system: bone marrow GM-CFU; assay: stimulation of bone marrow GM-CFU after administration to mice; assay type: in vivo, B6D2F1 mice; details: bone marrow harvested 24 hours after administering
Protocol: In an illustrative assay three B6D2F1 mice were treated with various doses of benzyl PG intraperitoneally.
Mice in the control group were injected with water or saline. Bone marrow cells were harvested 24 hours after drug treatment and added to alpha minimum essential medium (alpha MEM) supplemented with methylcellulose (0.8% w/v), fetal bovine serum (20% v/v), deionized BSA (1% w/v), Pokeweed mitogen-stimulated spleen-cell conditioned medium (PWM-SCCM)^1 (10% v/v) and gentamycin (50 Tg/ml). One ml aliquots were plated (four replicate plates) and incubated for seven days at 37 °C. […] Spleens were removed aseptically from four male B6D2F1 mice enforced through a 200 Tm wire mesh screen to obtain a single cell suspension. Ten ml of the suspension (2-4 X 10^7 cell/ml was added to 90 ml alpha-MEM supplemented with 1% deionized BSA, 50 Tg/ml gentamicin, 0.3% freshly reconstituted pokeweed antigen, 10 µM 2-mercaptoethanol. The mixture was incubated for 5 days at […] in a 5% CO2 atmosphere and the result-ing conditioned medium was centrifuged at 800g for ten minutes and filtered through a 0.22 Tm filter. Aliquots were kept frozen at […] until use.
Bone marrow was harvested 24 hours after administering the compounds and GM-CFU levels measured as described above.

[4] = target: T2, GST A1-1 (Homo sapiens, UniProt P08263); assay: inhibition of GST isoenzyme A1-1 (Ki); assay type: biochemical; details: determined on unesterified form
T2 sequence (P08263 1-222): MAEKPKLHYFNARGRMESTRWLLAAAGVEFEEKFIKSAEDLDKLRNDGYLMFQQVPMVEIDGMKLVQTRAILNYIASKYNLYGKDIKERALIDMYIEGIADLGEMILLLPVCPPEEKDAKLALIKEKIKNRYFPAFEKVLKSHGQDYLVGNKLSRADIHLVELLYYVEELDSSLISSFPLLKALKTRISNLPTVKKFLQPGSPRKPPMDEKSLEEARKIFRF

[5] = system: HT-29 (human colon adenocarcinoma) cells; assay: modified clonogenic assay, potentiation of chlorambucil cytotoxicity; assay type: cell-based; details: for DMF of DEE: diethyl ester
Protocol: HT-29 (human colon adenocarcinoma) cells were obtained from Dr. Roberto Ceriani (Cancer Research Fund of Contra Costa County, Walnut Creek, CA) and were used in log phase of growth unless otherwise specified. Chlorambucil (CMB) was obtained from Sigma (St. Louis, MO) and was dissolved in 100% ethanol. All GST inhibitors were dissolved in ethanol, DMSO, or water just prior to use. The same amount of solvent added to culture medium served as the vehicle control.
In a modified clonogenic assay for cytotoxicity, cells were suspended at 2 x 10^5 cells/ml in serum-free medium in the presence of vehicle or inhibitor. […] Cells were incubated for 2 hours, then varying doses of CMB were added. At the end of a second 2-hour incubation, cells were diluted to 7.5-10 x 10^3/ml in serum-containing medium and plated in quadruplicate at 200 µl/well in Microtest III microtiter plates.
Plates were incubated for 6 days and assayed by a modified methylene blue method. Briefly, cells were fixed with 1.25% glutaraldehyde in PBS then stained with 0.05% methylene blue in distilled water. Plates were washed several times in distilled water to remove unretained dye and retained dye was resolubilized in 0.03 N HCl. Plates were read at 650 nm in a Molecular Devices Vmax plate reader (Molecular Devices, Redwood City, CA). […] A dose modification factor (DMF), a measure of potentiation of cytotoxicity, was calculated for each inhibitor by dividing the IC50 value of CMB without inhibitor treatment by the IC50 value for CMB with inhibitor treatment.

[6] = target: T3, GST M1a-1a (Homo sapiens, UniProt P09488); assay: inhibition of GST isoenzyme M1a-1a (Ki); assay type: biochemical; details: determined on unesterified form
T3 sequence (P09488 1-218): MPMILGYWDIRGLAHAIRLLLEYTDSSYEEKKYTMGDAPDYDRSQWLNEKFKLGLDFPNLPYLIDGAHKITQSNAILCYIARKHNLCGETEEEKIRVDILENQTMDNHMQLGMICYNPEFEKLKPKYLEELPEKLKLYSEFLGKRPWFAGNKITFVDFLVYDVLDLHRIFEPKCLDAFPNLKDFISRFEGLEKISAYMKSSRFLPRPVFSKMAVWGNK

[7] = system: HT4-1, a subclone of HT-29; assay: standard clonogenic assay, potentiation of drug toxicity, HT4-1
Protocol: Four chemotherapeutic drugs, chlorambucil, adriamycin, mitomycin C and doxorubicin were used as the toxic agents. In these assays, the cells were seeded at 300 cells/well in 2 ml of medium in 6-well plates in the presence of the compounds used in the invention as the diethyl esters. […] After incubation for 1-2 hours to permit cells to attach, varying doses of the chemotherapeutic agents were added. At least three replicate wells were plated for each test condition and the plates were incubated for two weeks. […] IC50 values were determined for the chemotherapeutic agent in the presence or absence of the compound used in the invention and dose modification factors were calculated by dividing the IC50 value of drug without the compound by the IC50 value of the drug with the compound.

[8] = system: HT4-1 tumors; assay: potentiation of melphalan toxicity in vivo, implanted HT4-1 tumors; design: species or system Male scid mice; details: for tumor volume as a percentage of control tumor volume: seven days, when control tumors reached 1500 mm^3
Protocol: Male scid mice were subcutaneously implanted with HT4-1 tumors from donor mice. HT4-1 is a subclone of HT-29, a human colon cancer. When tumors reached approximately 100 mm^3, the mice were randomized into six treatment groups and treated for seven days as follows: • 1. 5 mg/kg melphalan; • 2. 10 mg/kg ethacrynic acid; • 3. […] 5 mg/kg melphalan + 10 mg/kg ethacrynic acid; • 5.
The mice were monitored for weight changes and tumor volumes were determined by measurement with calipers. The tumor growth was monitored until the average tumor size reached 1500 mm^3 for all groups except melphalan with ethacrynic acid.
The results were computed in terms of the tumor volume in the drug treated mice as a percentage of control tumor volume (i.e., in the group administered vehicle alone). In group 1, administered melphalan alone, the tumors were approximately 75% of the volume of controls. […] For group 4 administered a combination of melphalan and ethacrynic acid, the volumes were approximately 35% of control. […] (The volume measurements were taken at the time control tumors reached 1500 mm^3.)

[9] = system: bone marrow GM-CFU; details: melphalan 10 mg/kg i.p. alone
[10] = system: HT-29 cells; assay: Cytosensor Microphysiometer acidification rates; assay type: cell-based, human; details: 4 hours pretreatment, TER199 20 µM, ethacrynic acid 50 µM
Protocol: The metabolic effects related to toxicity of the compounds of the invention on HT-29 cells, were tested using a Cytosensor Microphysiometer made by Molecular Devices, Inc., Menlo Park, CA and described in McConnell, H.M. et al. Science (1992) 257:1906-1912 and by Wada, H.G. et al. AATEX (1992) 1:154-164. Changes in pH of the culture medium are measured as a function of cellular metabolism. Acidification rates of the small volume of liquid flowing over the cells correlate with the number of live cells in the reaction chamber; a reduction of acidification rate reflects reduced numbers of surviving cells. […] The medium was then replaced with serum-free low buffer capacity medium and Microphysiometer analysis was initiated.

[11] = in vitro half-life in human blood; assay type: in vitro ADME
[12] = in vitro half-life / metabolism in mouse blood; assay type: in vitro ADME
[13] = system: VLB, a vinblastine-resistant variant of SKOV-3; assay: standard clonogenic assay, potentiation of drug toxicity, VLB; assay type: cell-based
Protocol: (§1) ; SKOV-3 an ovarian carcinoma, and VLB, a vinblastine-resistant variant of SKOV-3. Four chemotherapeutic drugs, chlorambucil, adriamycin, mitomycin C and doxorubicin were used as the toxic agents. In these assays, the cells were seeded at 300 cells/well in 2 ml of medium in 6-well plates in the presence of the compounds used in the invention as the diethyl esters. […]. After incubation for 1-2 hours to permit cells to attach, varying doses of the chemotherapeutic agents were added. At least three replicate wells were plated for each test condition and the plates were incubated for two weeks. Colonies were fixed in 95% ethanol and stained with crystal violet for colony counting. IC50 values were determined for the chemotherapeutic agent in the presence or absence of the compound used in the invention and dose modification factors were calculated by dividing the IC50 value of drug without the compound by the IC50 value of the drug with the compound.

[14] = system: SKOV-3 an ovarian carcinoma; assay: standard clonogenic assay, potentiation of drug toxicity, SKOV-3; assay type: cell-based
Protocol: as §1

[15] = chlorambucil, mean ±S.D. of 2-3 experiments
[16] = HT4-1, TER199 at 25 µM, TER183 dose not given

Human GST P1-1, sequence (P09211 2-210 limits assumed): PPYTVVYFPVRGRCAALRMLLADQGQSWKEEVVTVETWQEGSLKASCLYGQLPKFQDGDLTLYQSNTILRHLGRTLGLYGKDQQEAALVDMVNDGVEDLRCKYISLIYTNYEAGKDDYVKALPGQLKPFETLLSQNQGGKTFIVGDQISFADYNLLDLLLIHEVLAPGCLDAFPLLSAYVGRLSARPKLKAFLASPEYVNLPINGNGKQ

**Q.** What does the source list for γE-C(naphthyl)-G [TER206]?
**A.** Ki [1]: 1.2 µM; Ki [2]: 1.5 µM; effect on GM-CFU, analogs of TER199 (Figure 8) [3]: inactive; Ki [4]: 4.2 µM; DMF (dose modification factor), Diethyl ester ([5]; chlorambucil, HT-29, dose tested 12.5 µM, mean ±S.D. of 2-3 experiments): 1.21±0.01; DMF of DEE [5, 15]: 1.213; Ki [6]: 0.01 µM

**Q.** For `N[C@@H](CCC(=O)N[C@@H](CSCc1ccccc1)C(=O)N[C@@H](C(=O)O)c1ccccc1)C(=O)O` [TER117, γE-C(Bz)-ϕG] (γGlu-Cys(Bn)-[dPhg]-OH), which Ki [1] is on record?
**A.** Its Ki is 0.4 µM.

**Q.** And the Ki [2]?
**A.** Its Ki is 31 µM.

**Q.** What about the “survival of HT4-1 cells in the presence of the compound alone (Figure 1b)” value ([7]; HT4-1 cells) of the same compound?
**A.** Its value is “substantially no effect”.

**Q.** And the “effect on GM-CFU as a function of dosage, ester/amide forms (Figure 7)” value [3]?
**A.** Its value is “not effective”.

**Q.** What about the Ki [4] of the same compound?
**A.** Its Ki is 20 µM.

**Q.** What about the “DMF (dose modification factor), Parent Compound” value ([5]; chlorambucil, HT-29, dose tested 100 µM, mean ±S.D. of 2-3 experiments) of the same compound?
**A.** The value was 1.08 and 1.08±0.01.

**Q.** And the Ki [6]?
**A.** Its Ki is 25 µM.

**Q.** What does the source list for `N[C@@H](Cc1ccc(N(CCCl)CCCl)cc1)C(=O)O` [melphalan, reference compound]?
**A.** tumor volume as a percentage of control tumor volume ([8]; group 1: 5 mg/kg melphalan alone): approximately 75%; GM-CFU remaining [9]: 2%

**Q.** What does the source list for `C=C(CC)C(=O)c1ccc(OCC(=O)O)c(Cl)c1Cl` [ethacrynic acid, reference compound]?
**A.** effect on acidification rates, compound alone (Figure 2) ([10]; no chlorambucil): Neither γE-C(Bz)-ϕG diethylester (TER199) nor ethacrynic acid alone had any appreciable effect; effect of pretreatment on acidification rates with chlorambucil (Figure 2) ([10]; then 100 µM chlorambucil): potentiated the effect of chlorambucil; time until average tumor size reached 1500 mm^3 ([8]; 5 mg/kg melphalan + 10 mg/kg ethacrynic acid, volume not reached): > 72 days; tumor volume as a percentage of control tumor volume ([8]; group 4: 5 mg/kg melphalan + 10 mg/kg ethacrynic acid): approximately 35%

**Q.** Which “half-life, comparison of the three compounds” value [11] does the source give for `CCNC(=O)C(N)CCC(=O)NC(CSCc1ccccc1)C(=O)N[C@@H](C(=O)NCC)c1ccccc1` (stereo partly drawn) [TER278, γE ethyl amide-C(Bz)-R-(-)-ϕG ethyl amide] here?
**A.** Its value is “approximately the same”.

**Q.** And the “DMF for chlorambucil toxicity” value ([5]; HT-29, 200 µM, single experiment)?
**A.** Its value is 1.0.

**Q.** And the “ability to potentiate chlorambucil compared with TER199” value ([5]; test system not stated)?
**A.** The value was “less able to potentiate chlorambucil”.

**Q.** What about the “toxicity compared with TER199” value ([5]; test system not stated) of the same compound?
**A.** The value was “less toxic”.

**Q.** And the “half-life compared with TER199” value [12]?
**A.** The value was “longer half-lives than TER199”.

**Q.** What does the source list for `CCCCCCCCSC[C@H](NC(=O)CC[C@H](N)C(=O)OCC)C(=O)NCC(=O)OCC` [TER183, γE-C(octyl)-G diethyl ester]?
**A.** DMF for Adriamycin ([13]; TER199 at 25 µM, TER183 dose not given): 1.06; DMF for Mitomycin C ([13]; test dose not given): 1.63; DMF for Adriamycin [7, 16]: 1.13; DMF for Chlorambucil [7, 16]: 1.74; DMF for Mitomycin C [7, 16]: 1.56; DMF for Adriamycin ([14]; analog @5 uM): 1.24 (@5 uM)^c; DMF for Chlorambucil ([14]; test dose not given): 1.03; DMF (dose modification factor), Diethyl ester ([5]; chlorambucil, HT-29, dose tested 5 µM, mean ±S.D. of 2-3 experiments): 0.86±0.02; DMF of DEE [5, 15]: 0.864
